# Assay: Inhibition of dog kidney Sodium/potassium-transporting ATPase by ELISA
# Parameters: species or system Canis lupus familiaris
row,SMILES,IC50 [nM]
1,C[C@]12C[C@@H](O)[C@H]3[C@@H](CC[C@]4(O)C[C@@H](OC(=O)CCCCCCCCCCCCCO)CC[C@]34CO)[C@@]1(O)CC[C@@H]2c1ccc(=O)oc1,100
2,C[C@]12C[C@@H](O)[C@H]3[C@@H](CC[C@]4(O)C[C@@H](O)CC[C@]34CO)[C@@]1(O)CC[C@@H]2c1ccc(=O)oc1,120
3,C[C@]12C[C@@H](O)[C@H]3[C@@H](CC[C@]4(O)C[C@@H](OC(=O)CCCCC/C=C\CCCCCCO)CC[C@]34CO)[C@@]1(O)CC[C@@H]2c1ccc(=O)oc1,100
4,C[C@]12C[C@@H](O)[C@H]3[C@@H](CC[C@]4(O)C[C@@H](OC(=O)CCCCCCCCCCCO)CC[C@]34CO)[C@@]1(O)CC[C@@H]2c1ccc(=O)oc1,120

# — ChEMBL document CHEMBL1151320, “Isolation and characterization of novel endogenous digitalis-like factors in the ovary of the giant toad, Bufo marinus” (J Nat Prod, 1998)
